Data published in PubChem BioAssay (NCI).
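Assay format: 96-well plates, 48-hour exposure. TGI: concentration producing complete growth inhibition.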

Legend:
Assay in all cases: NCI-60 cell line screen, 48 h
SK-MEL-2 melanoma = tested on: SK-MEL-2 melanoma
HS 578T breast = tested on: HS 578T breast
HOP-92 NSCLC = tested on: HOP-92 NSCLC
MALME-3M melanoma = tested on: MALME-3M melanoma
NCI-H522 lung = tested on: NCI-H522 lung
SK-OV-3 ovarian = tested on: SK-OV-3 ovarian
K-562 leukemia = tested on: K-562 leukemia
U251 CNS = tested on: U251 CNS
DU-145 prostate = tested on: DU-145 prostate
UACC-62 melanoma = tested on: UACC-62 melanoma
SK-MEL-28 melanoma = tested on: SK-MEL-28 melanoma
HCC-2998 colon = tested on: HCC-2998 colon
CAKI-1 renal = tested on: CAKI-1 renal
KM12 colon = tested on: KM12 colon
MOLT-4 leukemia = tested on: MOLT-4 leukemia
UO-31 renal = tested on: UO-31 renal
COLO 205 colon = tested on: COLO 205 colon
SF-268 CNS = tested on: SF-268 CNS
RXF 393 renal = tested on: RXF 393 renal
OVCAR-8 ovarian = tested on: OVCAR-8 ovarian
MDA-MB-231 breast = tested on: MDA-MB-231 breast
EKVX NSCLC = tested on: EKVX NSCLC
SR leukemia = tested on: SR leukemia
MCF7 breast = tested on: MCF7 breast
CCRF-CEM leukemia = tested on: CCRF-CEM leukemia
ACHN renal = tested on: ACHN renal
UACC-257 melanoma = tested on: UACC-257 melanoma
PC-3 prostate = tested on: PC-3 prostate
SF-295 CNS = tested on: SF-295 CNS
LOX IMVI melanoma = tested on: LOX IMVI melanoma
786-0 renal = tested on: 786-0 renal
OVCAR-4 ovarian = tested on: OVCAR-4 ovarian
SW-620 colon = tested on: SW-620 colon
IGROV1 ovarian = tested on: IGROV1 ovarian
M14 melanoma = tested on: M14 melanoma
SF-539 CNS = tested on: SF-539 CNS
NCI-H23 lung = tested on: NCI-H23 lung
SNB-19 CNS = tested on: SNB-19 CNS
A498 renal = tested on: A498 renal
TK-10 renal = tested on: TK-10 renal
SNB-75 CNS = tested on: SNB-75 CNS
HT29 colon = tested on: HT29 colon
HL-60(TB) leukemia = tested on: HL-60(TB) leukemia
RPMI-8226 leukemia = tested on: RPMI-8226 leukemia
HCT-15 colon = tested on: HCT-15 colon
NCI/ADR-RES ovarian = tested on: NCI/ADR-RES ovarian
MDA-MB-435 = tested on: MDA-MB-435
HOP-62 NSCLC = tested on: HOP-62 NSCLC
NCI-H226 lung = tested on: NCI-H226 lung
OVCAR-3 ovarian = tested on: OVCAR-3 ovarian
SK-MEL-5 melanoma = tested on: SK-MEL-5 melanoma
OVCAR-5 ovarian = tested on: OVCAR-5 ovarian
MDA-N = tested on: MDA-N
A549 NSCLC = tested on: A549 NSCLC
NCI-H460 lung = tested on: NCI-H460 lung
T-47D breast = tested on: T-47D breast
HCT-116 colon = tested on: HCT-116 colon
SN12C renal = tested on: SN12C renal

CCOC(=O)N1CCC2(CC1)C[C@](Sc1ccccc1)(C(C)=O)[C@H](C)O2
TGI (SK-MEL-2 melanoma): > 100 µM | TGI (HS 578T breast): > 100 µM | TGI (HOP-92 NSCLC): > 100 µM | TGI (MALME-3M melanoma): > 100 µM | TGI (NCI-H522 lung): > 100 µM | TGI (SK-OV-3 ovarian): > 100 µM | TGI (K-562 leukemia): > 100 µM | TGI (U251 CNS): > 100 µM | TGI (DU-145 prostate): > 100 µM | TGI (UACC-62 melanoma): > 100 µM | TGI (SK-MEL-28 melanoma): > 100 µM | TGI (HCC-2998 colon): > 100 µM | TGI (CAKI-1 renal): > 100 µM | TGI (KM12 colon): > 100 µM | TGI (MOLT-4 leukemia): > 100 µM | TGI (UO-31 renal): > 100 µM | TGI (COLO 205 colon): > 100 µM | TGI (SF-268 CNS): > 100 µM | TGI (RXF 393 renal): > 100 µM | TGI (OVCAR-8 ovarian): > 100 µM | TGI (MDA-MB-231 breast): > 100 µM | TGI (EKVX NSCLC): > 100 µM | TGI (SR leukemia): > 100 µM | TGI (MCF7 breast): > 100 µM | TGI (CCRF-CEM leukemia): > 100 µM | TGI (ACHN renal): > 100 µM | TGI (UACC-257 melanoma): > 100 µM | TGI (PC-3 prostate): > 100 µM | TGI (SF-295 CNS): > 100 µM | TGI (LOX IMVI melanoma): > 100 µM | TGI (786-0 renal): > 100 µM | TGI (OVCAR-4 ovarian): > 100 µM | TGI (SW-620 colon): > 100 µM | TGI (IGROV1 ovarian): > 100 µM | TGI (M14 melanoma): > 100 µM | TGI (SF-539 CNS): > 100 µM | TGI (NCI-H23 lung): > 100 µM | TGI (SNB-19 CNS): > 100 µM | TGI (A498 renal): > 100 µM | TGI (TK-10 renal): > 100 µM | TGI (SNB-75 CNS): > 100 µM | TGI (HT29 colon): > 100 µM | TGI (HL-60(TB) leukemia): > 100 µM | TGI (RPMI-8226 leukemia): > 100 µM | TGI (HCT-15 colon): > 100 µM | TGI (NCI/ADR-RES ovarian): > 100 µM | TGI (MDA-MB-435): > 100 µM | TGI (HOP-62 NSCLC): > 100 µM | TGI (NCI-H226 lung): > 100 µM | TGI (OVCAR-3 ovarian): > 100 µM | TGI (SK-MEL-5 melanoma): > 100 µM | TGI (OVCAR-5 ovarian): > 100 µM | TGI (MDA-N): > 100 µM | TGI (A549 NSCLC): > 100 µM | TGI (NCI-H460 lung): > 100 µM | TGI (T-47D breast): > 100 µM

COC(=O)c1sc2nc(Nc3ccccc3)c(=Nc3ccccc3)sc2c1C
TGI (SK-MEL-2 melanoma): > 100 µM | TGI (HS 578T breast): > 100 µM | TGI (HOP-92 NSCLC): 92 µM | TGI (MALME-3M melanoma): > 100 µM | TGI (NCI-H522 lung): > 100 µM | TGI (SK-OV-3 ovarian): > 100 µM | TGI (K-562 leukemia): > 100 µM | TGI (U251 CNS): > 100 µM | TGI (DU-145 prostate): > 100 µM | TGI (UACC-62 melanoma): > 100 µM | TGI (SK-MEL-28 melanoma): > 100 µM | TGI (HCC-2998 colon): > 100 µM | TGI (CAKI-1 renal): > 100 µM | TGI (KM12 colon): > 100 µM | TGI (MOLT-4 leukemia): > 100 µM | TGI (UO-31 renal): > 100 µM | TGI (COLO 205 colon): > 100 µM | TGI (SF-268 CNS): > 100 µM | TGI (RXF 393 renal): 80.5 µM | TGI (OVCAR-8 ovarian): > 100 µM | TGI (MDA-MB-231 breast): > 100 µM | TGI (EKVX NSCLC): > 100 µM | TGI (SR leukemia): > 100 µM | TGI (HCT-116 colon): > 100 µM | TGI (CCRF-CEM leukemia): > 100 µM | TGI (SN12C renal): > 100 µM | TGI (ACHN renal): > 100 µM | TGI (UACC-257 melanoma): > 100 µM | TGI (PC-3 prostate): > 100 µM | TGI (SF-295 CNS): > 100 µM | TGI (LOX IMVI melanoma): > 100 µM | TGI (786-0 renal): > 100 µM | TGI (OVCAR-4 ovarian): > 100 µM | TGI (SW-620 colon): > 100 µM | TGI (IGROV1 ovarian): > 100 µM | TGI (SF-539 CNS): > 100 µM | TGI (NCI-H23 lung): > 100 µM | TGI (SNB-19 CNS): > 100 µM | TGI (A498 renal): > 100 µM | TGI (TK-10 renal): > 100 µM | TGI (SNB-75 CNS): > 100 µM | TGI (HT29 colon): > 100 µM | TGI (HL-60(TB) leukemia): > 100 µM | TGI (RPMI-8226 leukemia): > 100 µM | TGI (HCT-15 colon): > 100 µM | TGI (NCI/ADR-RES ovarian): > 100 µM | TGI (MDA-MB-435): > 100 µM | TGI (HOP-62 NSCLC): > 100 µM | TGI (NCI-H226 lung): > 100 µM | TGI (SK-MEL-5 melanoma): > 100 µM | TGI (OVCAR-5 ovarian): > 100 µM | TGI (MDA-N): > 100 µM | TGI (A549 NSCLC): > 100 µM | TGI (NCI-H460 lung): > 100 µM | TGI (T-47D breast): > 100 µM
